In patent US8921569B2, “Rationally improved isoniazid and ethionamide derivatives and activity through selective isotopic substitution” (STC.UNM, priority 2007, dated 2014):

What was measured:
M bovis BCG [1] = type: cell-based; details: O 1 micrograms per ml, cultures at day 4 plated out
M bovis BCG [2] = type: cell-based; details: O 1 micrograms per ml, 3 or 4 days after treatment, triplicate cultures

In the case of `NN[13C](=O)c1ccncc1` [C13 INH, 4-pyridine-[^13C]carboxylic acid hydrazide], the “activity by CFU (colony forming units), compared with 12C isoniazid” value (M bovis BCG [1]) is reported as “marked expected increase in activity” and the “antimicrobial effects by cultures optical density, compared with 12C isoniazid” value (M bovis BCG [2]) is reported as “significant increase in activity”.
